Assay results from ChEMBL document CHEMBL5370619, “Targeting the Tyrosine Kinase 2 (TYK2) Pseudokinase Domain: Discovery of the Selective TYK2 Inhibitor ABBV-712” (J Med Chem, 2023).
Values after ≈ are worked out from the molar mass of the structure shown.

Columns and labels:
[1] = molecular target: T1, Non-receptor tyrosine-protein kinase TYK2 (Homo sapiens, UniProt P29597); test: Inhibition of recombinant human N-terminal His-tagged TYK2 JH2 domain (577 to 870 residues) expressed in Sf9 cells using N-(2-(2-(2-((3-(5-acetamido-3-(3-(N,N-dimethylsulfamoyl)phenyl)-1H-pyrrolo[2,3-c]pyridin-1-yl)propyl)amino)-2-oxoethoxy)ethoxy)ethyl)-2',7'-difluoro-3',6'-dihydroxy-3-oxo-3H-spiro[isobenzofuran-1,9'-xanthene]-5-carboxamide trifluoroacetate as substrate incubated for 60 mins by TR-FRET assay
[2] = molecular target: T1, Non-receptor tyrosine-protein kinase TYK2; test: Inhibition of TYK2 in human T-blast cells assessed as IL-12 induced STAT4 phosphorylation at Tyr694 residue preincubated for 30 mins followed by IL-12 stimulation and measured after 20 mins by AlphaScreen assay; type: cell-based, T-blast cell
[3] = molecular target: Tyrosine-protein kinase JAK1 (Homo sapiens, UniProt P23458); test: Inhibition of JAK1 in human TF-1 cells assessed as reduction in IL-6 induced STAT3 phosphorylation at Tyr705 residue preincubated for 30 mins followed by IL-6 stimulation and measured after 30 mins by AlphaScreen assay; type: cell-based
[4] = Metabolic stability in human hepatocytes assessed as intrinsic clearance for unbound fraction of drug; type: ADME, cell-based, Hepatocyte
[5] = Thermodynamic solubility in PBS at pH 7.4; type: physicochemical; conditions: read-out: Therm_solubility
[6] = molecular target: Tyrosine-protein kinase JAK2 (Homo sapiens, UniProt O60674); test: Inhibition of JAK2 in human UT7 cells assessed as reduction in erythropoietin induced STAT5 phosphorylation preincubated for 30 mins followed by erythropoietin stimulation and measured after 20 mins by AlphaScreen assay; type: cell-based
[7] = molecular target: T2, Tyrosine-protein kinase JAK3 (Homo sapiens, UniProt P52333); test: Inhibition of JAK3 in human T-blast cells assessed as reduction in IL-2 induced STAT5 phosphorylation preincubated for 30 mins followed by IL-2 stimulation and measured after 20 mins by AlphaScreen assay; type: cell-based, T-blast cell
T2 sequence (P52333 whole entry): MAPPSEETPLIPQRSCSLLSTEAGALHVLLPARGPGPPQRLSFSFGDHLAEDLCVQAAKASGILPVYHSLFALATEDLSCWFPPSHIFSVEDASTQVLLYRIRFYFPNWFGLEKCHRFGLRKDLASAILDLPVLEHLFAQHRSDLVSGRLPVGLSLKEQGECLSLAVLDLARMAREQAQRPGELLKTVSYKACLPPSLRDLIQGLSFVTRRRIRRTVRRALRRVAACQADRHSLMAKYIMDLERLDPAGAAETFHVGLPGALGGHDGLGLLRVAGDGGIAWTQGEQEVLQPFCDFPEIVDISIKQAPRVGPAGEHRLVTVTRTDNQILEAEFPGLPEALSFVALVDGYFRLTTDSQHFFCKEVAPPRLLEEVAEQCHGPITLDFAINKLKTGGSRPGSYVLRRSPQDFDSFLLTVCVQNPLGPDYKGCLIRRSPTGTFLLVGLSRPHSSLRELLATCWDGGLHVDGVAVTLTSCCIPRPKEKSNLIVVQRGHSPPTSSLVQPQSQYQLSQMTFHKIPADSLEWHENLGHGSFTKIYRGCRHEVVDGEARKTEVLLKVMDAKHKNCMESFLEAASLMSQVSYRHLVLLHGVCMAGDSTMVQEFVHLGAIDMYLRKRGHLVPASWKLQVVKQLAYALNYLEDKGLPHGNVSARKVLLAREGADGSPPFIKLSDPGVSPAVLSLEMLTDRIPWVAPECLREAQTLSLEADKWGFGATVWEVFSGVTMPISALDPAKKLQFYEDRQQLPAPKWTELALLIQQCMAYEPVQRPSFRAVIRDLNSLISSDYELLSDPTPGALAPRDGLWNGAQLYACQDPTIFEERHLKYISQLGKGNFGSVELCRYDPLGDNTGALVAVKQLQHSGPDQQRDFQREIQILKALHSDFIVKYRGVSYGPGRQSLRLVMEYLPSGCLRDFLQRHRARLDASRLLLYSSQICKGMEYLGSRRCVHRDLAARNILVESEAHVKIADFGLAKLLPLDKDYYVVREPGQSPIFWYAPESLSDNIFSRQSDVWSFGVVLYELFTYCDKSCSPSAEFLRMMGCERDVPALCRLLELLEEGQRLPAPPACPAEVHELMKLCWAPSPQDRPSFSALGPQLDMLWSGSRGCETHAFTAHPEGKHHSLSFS

CYP3A4 [8] = molecular target: T3, CYP3A4 (Homo sapiens, UniProt P08684); test: Time dependent inhibition of CYP3A4 in human liver microsomes using midazolam as substrate assessed as 1'-OH midazolam metabolite formation at 50 uM preincubated for 30 mins in presence of NADPH followed by substrate addition and measured after 15 mins by HPLC-MS/MS analysis relative to control; type: ADME, Microsome; conditions: probe midazolam, time 45 min, read-out: TDI
CYP3A4 [9] = molecular target: T3, CYP3A4; test: Induction of CYP3A4 in human hepatocytes assessed as fold increase in mRNA level at 10 uM incubated for 24 hrs by RT-qPCR analysis relative to control; type: ADME, cell-based, Hepatocyte; conditions: read-out: FC
CYP3A4 [10] = molecular target: T3, CYP3A4; test: Induction of CYP3A4 in human hepatocytes assessed as maximum activation in mRNA level at 10 uM incubated for 24 hrs by RT-qPCR analysis relative to control; type: ADME, cell-based, Hepatocyte; conditions: read-out: max activation
[11] = Unbound clearance in rat blood at 1 mg/kg, iv or 1 mg/kg,po; type: ADME, organism-based; conditions: in vivo
[12] = Half life in rat at 1 mg/kg, iv or 1 mg/kg,po; type: ADME, organism-based; conditions: in vivo
[13] = Volume of distribution at steady state in rat at 1 mg/kg, iv or 1 mg/kg,po; type: ADME, organism-based; conditions: in vivo, read-out: Vdss
[14] = Oral bioavailability in rat at 1 mg/kg; type: ADME, organism-based; conditions: in vivo
[15] = Metabolic stability in dog hepatocytes assessed as intrinsic clearance for unbound fraction of drug; type: ADME, cell-based, Canis lupus familiaris, Hepatocyte
[16] = Metabolic stability in monkey hepatocytes assessed as intrinsic clearance for unbound fraction of drug; type: ADME, cell-based, Macaca mulatta, Hepatocyte; conditions: rhesus monkey
[17] = Unbound clearance in dog blood at 0.5 mg/kg, iv; type: ADME, organism-based, Canis lupus familiaris; conditions: in vivo
[18] = Half life in dog at 0.5 mg/kg, iv; type: ADME, organism-based, Canis lupus familiaris; conditions: in vivo
[19] = AUC (0 to infinity) in dog at 0.5 mg/kg,po; type: ADME, organism-based, Canis lupus familiaris; parameters: dose 0.5 mg/kg, route po; conditions: in vivo
[20] = Oral bioavailability in dog at 0.5 mg/kg; type: ADME, organism-based, Canis lupus familiaris; conditions: in vivo
[21] = Unbound clearance in cynomolgus monkey blood at 0.5 mg/kg, iv; type: ADME, organism-based, Macaca fascicularis; conditions: in vivo
[22] = Half life in cynomolgus monkey at 0.5 mg/kg, iv; type: ADME, organism-based, Macaca fascicularis; conditions: in vivo

Sequence of Tyrosine-protein kinase JAK1 (P23458 whole entry): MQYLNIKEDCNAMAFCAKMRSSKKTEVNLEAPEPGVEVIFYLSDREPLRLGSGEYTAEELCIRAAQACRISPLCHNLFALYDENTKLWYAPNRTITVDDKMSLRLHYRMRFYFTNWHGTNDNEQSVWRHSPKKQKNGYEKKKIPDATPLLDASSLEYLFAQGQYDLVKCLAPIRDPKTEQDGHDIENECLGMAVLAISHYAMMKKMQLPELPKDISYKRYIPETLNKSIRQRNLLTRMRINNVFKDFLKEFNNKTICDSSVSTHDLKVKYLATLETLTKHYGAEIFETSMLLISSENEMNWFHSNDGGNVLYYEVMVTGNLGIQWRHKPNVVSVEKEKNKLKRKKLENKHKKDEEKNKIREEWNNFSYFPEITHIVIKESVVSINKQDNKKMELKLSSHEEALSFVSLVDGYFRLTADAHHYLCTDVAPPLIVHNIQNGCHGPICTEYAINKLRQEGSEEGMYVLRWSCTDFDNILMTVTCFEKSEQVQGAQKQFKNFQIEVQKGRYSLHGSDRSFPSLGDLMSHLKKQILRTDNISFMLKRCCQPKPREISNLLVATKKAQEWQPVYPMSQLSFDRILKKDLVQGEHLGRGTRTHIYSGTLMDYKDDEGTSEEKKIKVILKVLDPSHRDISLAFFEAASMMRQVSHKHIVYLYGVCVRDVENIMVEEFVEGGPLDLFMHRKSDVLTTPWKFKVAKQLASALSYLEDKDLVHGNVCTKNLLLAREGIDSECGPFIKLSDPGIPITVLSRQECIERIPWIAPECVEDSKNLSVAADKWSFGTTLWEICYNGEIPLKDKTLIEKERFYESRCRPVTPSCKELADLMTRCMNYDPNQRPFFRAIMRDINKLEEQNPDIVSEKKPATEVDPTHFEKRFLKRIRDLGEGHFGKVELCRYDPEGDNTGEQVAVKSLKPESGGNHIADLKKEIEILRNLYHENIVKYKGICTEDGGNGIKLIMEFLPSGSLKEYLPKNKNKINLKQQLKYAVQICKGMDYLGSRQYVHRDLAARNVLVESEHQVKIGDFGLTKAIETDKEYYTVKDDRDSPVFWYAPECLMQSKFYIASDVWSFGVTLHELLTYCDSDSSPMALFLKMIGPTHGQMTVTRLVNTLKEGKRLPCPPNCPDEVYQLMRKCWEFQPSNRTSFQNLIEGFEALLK
T3 sequence (P08684 whole entry): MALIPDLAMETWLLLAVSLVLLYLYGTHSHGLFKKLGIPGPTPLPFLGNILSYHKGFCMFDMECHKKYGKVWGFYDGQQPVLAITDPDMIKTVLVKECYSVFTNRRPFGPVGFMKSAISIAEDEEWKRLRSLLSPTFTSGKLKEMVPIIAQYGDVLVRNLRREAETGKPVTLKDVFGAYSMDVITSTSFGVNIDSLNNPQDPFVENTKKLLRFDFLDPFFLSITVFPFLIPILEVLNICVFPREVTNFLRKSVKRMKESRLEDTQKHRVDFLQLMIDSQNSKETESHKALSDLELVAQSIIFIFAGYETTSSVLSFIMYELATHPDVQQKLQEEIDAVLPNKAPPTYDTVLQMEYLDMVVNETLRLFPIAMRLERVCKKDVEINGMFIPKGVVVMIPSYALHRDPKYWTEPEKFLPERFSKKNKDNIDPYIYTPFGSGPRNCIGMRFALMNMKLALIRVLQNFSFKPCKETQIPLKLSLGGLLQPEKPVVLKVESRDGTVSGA
T1 sequence (P29597 whole entry, the tested form may be a part): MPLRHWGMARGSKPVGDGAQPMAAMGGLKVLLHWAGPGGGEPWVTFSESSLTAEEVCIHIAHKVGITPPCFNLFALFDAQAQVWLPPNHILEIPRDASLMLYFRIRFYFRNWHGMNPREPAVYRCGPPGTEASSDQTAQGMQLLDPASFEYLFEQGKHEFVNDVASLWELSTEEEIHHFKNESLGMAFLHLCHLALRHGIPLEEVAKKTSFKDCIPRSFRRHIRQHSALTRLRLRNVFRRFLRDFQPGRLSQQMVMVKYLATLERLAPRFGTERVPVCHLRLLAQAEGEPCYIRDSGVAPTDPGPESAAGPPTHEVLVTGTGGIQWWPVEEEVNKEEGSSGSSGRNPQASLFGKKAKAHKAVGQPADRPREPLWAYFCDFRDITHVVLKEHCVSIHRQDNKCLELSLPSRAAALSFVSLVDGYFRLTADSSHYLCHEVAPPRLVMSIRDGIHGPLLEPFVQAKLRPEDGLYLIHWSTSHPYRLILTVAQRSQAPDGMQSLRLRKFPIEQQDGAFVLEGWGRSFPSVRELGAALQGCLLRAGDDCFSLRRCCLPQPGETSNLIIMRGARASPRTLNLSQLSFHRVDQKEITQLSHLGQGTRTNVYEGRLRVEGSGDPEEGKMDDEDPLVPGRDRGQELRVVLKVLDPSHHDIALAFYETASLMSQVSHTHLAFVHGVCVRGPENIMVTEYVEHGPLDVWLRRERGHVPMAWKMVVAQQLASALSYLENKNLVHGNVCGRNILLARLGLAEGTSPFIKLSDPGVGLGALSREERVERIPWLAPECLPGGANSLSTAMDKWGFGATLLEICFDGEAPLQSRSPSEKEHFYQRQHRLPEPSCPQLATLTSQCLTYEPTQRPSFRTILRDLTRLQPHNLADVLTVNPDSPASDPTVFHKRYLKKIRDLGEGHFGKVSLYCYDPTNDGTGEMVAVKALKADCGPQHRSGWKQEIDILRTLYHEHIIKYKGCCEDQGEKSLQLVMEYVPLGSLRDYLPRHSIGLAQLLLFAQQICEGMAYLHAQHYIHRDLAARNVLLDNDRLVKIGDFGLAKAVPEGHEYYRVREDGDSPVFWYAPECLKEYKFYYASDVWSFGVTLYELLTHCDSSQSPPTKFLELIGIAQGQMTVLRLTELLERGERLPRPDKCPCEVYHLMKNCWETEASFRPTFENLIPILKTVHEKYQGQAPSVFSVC
Sequence of Tyrosine-protein kinase JAK2 (O60674 whole entry): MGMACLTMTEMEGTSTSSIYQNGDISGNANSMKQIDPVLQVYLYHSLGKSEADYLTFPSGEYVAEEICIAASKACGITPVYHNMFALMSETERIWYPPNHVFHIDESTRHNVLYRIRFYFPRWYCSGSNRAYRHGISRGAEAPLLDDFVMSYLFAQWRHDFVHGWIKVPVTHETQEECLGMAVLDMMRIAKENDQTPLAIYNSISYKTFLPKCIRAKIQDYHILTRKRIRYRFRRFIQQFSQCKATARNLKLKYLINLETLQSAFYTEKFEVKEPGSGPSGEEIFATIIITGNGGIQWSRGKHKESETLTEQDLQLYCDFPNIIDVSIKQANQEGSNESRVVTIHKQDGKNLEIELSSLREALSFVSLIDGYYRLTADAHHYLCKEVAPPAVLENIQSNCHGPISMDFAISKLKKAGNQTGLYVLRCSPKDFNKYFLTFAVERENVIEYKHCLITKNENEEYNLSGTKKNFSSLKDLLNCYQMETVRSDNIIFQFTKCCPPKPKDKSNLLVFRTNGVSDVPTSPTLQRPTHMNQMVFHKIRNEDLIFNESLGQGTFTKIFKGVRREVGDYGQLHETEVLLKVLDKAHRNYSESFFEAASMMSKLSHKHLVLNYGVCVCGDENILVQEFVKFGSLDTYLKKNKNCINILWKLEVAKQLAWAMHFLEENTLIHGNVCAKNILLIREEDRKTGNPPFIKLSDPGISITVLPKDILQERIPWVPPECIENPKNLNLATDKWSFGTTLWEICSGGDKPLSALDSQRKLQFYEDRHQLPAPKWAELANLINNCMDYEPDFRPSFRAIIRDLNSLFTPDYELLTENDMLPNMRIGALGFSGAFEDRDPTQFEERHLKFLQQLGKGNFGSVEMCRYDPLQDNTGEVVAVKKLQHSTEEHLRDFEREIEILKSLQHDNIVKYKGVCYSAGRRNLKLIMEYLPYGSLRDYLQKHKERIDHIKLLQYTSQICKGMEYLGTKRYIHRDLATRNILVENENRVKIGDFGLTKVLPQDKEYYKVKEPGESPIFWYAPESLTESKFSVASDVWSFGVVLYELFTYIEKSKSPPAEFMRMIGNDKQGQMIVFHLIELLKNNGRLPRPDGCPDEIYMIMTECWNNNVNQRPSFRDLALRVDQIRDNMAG

CC(=O)Nc1cc2c(-c3cccc(S(=O)(=O)C4COC4)n3)cn(C)c2cn1
IC50 [1]: 35 nM | EC50 [2]: 194 nM | EC50 [3]: 14000 nM

CO[C@@]1(c2cccc(-c3cn(C)c4cnc(NC(C)=O)cc34)n2)CCOC1
IC50 [1]: 30 nM | CL free [4]: 80 mL/min/kg | solubility thermodynamic [5]: 20 µM (≈ 7.33 µg/mL)

CC(=O)Nc1cc2c(-c3cccc(S(=O)(=O)N(C)C)n3)cn(C)c2cn1
IC50 [1]: 4 nM | EC50 [2]: 24 nM | EC50 [3]: 3400 nM | CL free [4]: 132 mL/min/kg | solubility thermodynamic [5]: 2.4 µM (≈ 0.896 µg/mL)

CO[C@]1(c2cccc(-c3cn(C)c4cnc(NC(C)=O)cc34)n2)CCOC1
IC50 [1]: 60 nM | EC50 [2]: 1500 nM | CL free [4]: 80 mL/min/kg | solubility thermodynamic [5]: 29 µM (≈ 10.6 µg/mL)

CO[C@@]1(c2cc(O[C@@H](C)CCO)cc(-c3cn(C)c4cnc(NC(C)=O)cc34)n2)CCOC1
EC50 [3]: > 20000 nM | CL free [4]: 102 mL/min/kg | solubility thermodynamic [5]: 190 µM (≈ 86.4 µg/mL) | EC50 [6]: > 20000 nM | EC50 [7]: > 20000 nM | inhibition at 0.25 h, 50 µM (CYP3A4 [8]): 21% | fold induction at 24 h, 10 µM (CYP3A4 [9]): 1.8 | Emax at 24 h, 10 µM (CYP3A4 [10]): 3% | CL free [11]: 102 mL/min/kg | half-life [12]: 0.5 h | Vd [13]: 2.5 L/kg | bioavailability [14]: 16% | CL free [15]: 30 mL/min/kg | CL free [16]: 107 mL/min/kg | CL free [17]: 41.7 mL/min/kg | half-life [18]: 3 h | AUC(0-inf) [19]: 300 ng·h/mL | bioavailability [20]: 71% | CL free [21]: 78.3 mL/min/kg | half-life [22]: 1.4 h

CO[C@@]1(c2cc(C(F)F)cc(-c3cn(C)c4cnc(NC(C)=O)cc34)n2)CCOC1
EC50 [2]: 40 nM | CL free [4]: 31.7 mL/min/kg | inhibition at 0.25 h, 50 µM (CYP3A4 [8]): 49% | fold induction at 24 h, 10 µM (CYP3A4 [9]): 7.7 | Emax at 24 h, 10 µM (CYP3A4 [10]): 23%

COCCOc1cc(-c2cn(C)c3cnc(NC(C)=O)cc23)nc([C@]2(OC)CCOC2)c1
EC50 [2]: 30 nM | CL free [4]: 110 mL/min/kg | inhibition at 0.25 h, 50 µM (CYP3A4 [8]): 6% | fold induction at 24 h, 10 µM (CYP3A4 [9]): 4 | Emax at 24 h, 10 µM (CYP3A4 [10]): 42%

CN(C)S(=O)(=O)c1cccc(-c2c[nH]c3cnc(NC(=O)C4CC4)cc23)c1
IC50 [1]: 480 nM | EC50 [2]: 540 nM | EC50 [3]: 36300 nM | CL free [4]: 765 mL/min/kg | solubility thermodynamic [5]: < 0.8 µM

CO[C@@]1(c2cc(OCC#N)cc(-c3cn(C)c4cnc(NC(C)=O)cc34)n2)CCOC1
CL free [4]: 33 mL/min/kg
